Test results reported in patent US10202658B2, “Methods for determining hypersusceptibility of HIV-1 to non-nucleoside reverse transcriptase inhibitors” (Monogram Biosciences, Inc., priority 2005, dated 2019).

Tested on: HIV-1 clinical isolates grouped by RT mutations
Assay: Pairwise comparison of NNRTI fold change between groups of clinical isolates (Student's T-test, Bonferroni's Multiple Comparison Test)
Type: cell-based
Protocol: This example provides methods and compositions for identifying mutations that correlate with hypersusceptibility to a NNRTI. Resistance test vectors were constructed and used as described in Example 1. Resistance test vectors derived from patient samples or clones derived from the resistance test vector pools were tested in a resistance assay to determine accurately and quantitatively the relative EFV, DLV, or NVP resistance or susceptibility compared to the median observed resistance or susceptibility.
To identify mutations associated with NNRTI hypersusceptibility, the following analysis was performed. […] The TAMs referenced in. Table 1 include M41L, D67N, K70R, L210W, T215FY, and K219X, while the NAMs referenced include K65R, T69X, L74IV, V75X, and M184IV. Isolates without NRTI, NNRTI or PI mutations served as a wild type (WT) reference group. Further comparison groups comprised isolates with three TAMS including T215Y (+/−H208Y, +/−V118I) or three TAMS including K70R. Scatter plots and statistical tests (See FIGS. 1-6) were generated using Prism 4.0 (GraphPad, San Diego, Calif.)
In addition, a pairwise comparison between two sets of data was conducted using Bonferroni's Multiple Comparison Test using the Prism 4.0 software. The results of the comparison are presented in Tables 2, 3, and 4, appended to the end of this document. Samples with K65R, K65R+M184V, or 2 TAMs in combination with T215Y had over 40% with EFV FC<0.4.

Cc1ccnc2c1NC(=O)c1cccnc1N2C1CC1 [NVP, nevirapine]
Mean Diff. of fold change (1 NAM vs 2 NAMs): 0.2694
Mean Diff. of fold change (1 NAM vs 3 NAMs): 0.221
Mean Diff. of fold change (1 NAM vs K65R): 0.3361
Mean Diff. of fold change (1 NAM vs K65R + M184V): 0.3786
Mean Diff. of fold change (1 NAM vs K70R_3_TAMs): 0.08835
Mean Diff. of fold change (1 NAM vs M184V): −0.01357
Mean Diff. of fold change (1 NAM vs T69): −0.03843
Mean Diff. of fold change (1 NAM vs T215Y_3_TAMs): 0.211
Mean Diff. of fold change (1 NAM vs T215Y_3_TAMs_118): 0.2013
Mean Diff. of fold change (1 NAM vs T215Y_3_TAMs_208): 0.2552
Mean Diff. of fold change (1 NAM vs T215Y_3_TAMs_no118): 0.2175
Mean Diff. of fold change (1 NAM vs T215Y_3_TAMs_no208): 0.204
Mean Diff. of fold change (2 NAMs vs 3 NAMs): −0.04846
Mean Diff. of fold change (2 NAMs vs K65R): 0.06669
Mean Diff. of fold change (2 NAMs vs K65R + M184V): 0.1092
Mean Diff. of fold change (2 NAMs vs K70R_3_TAMs): −0.1811
Mean Diff. of fold change (2 NAMs vs M184V): −0.283
Mean Diff. of fold change (2 NAMs vs T69): −0.3079
Mean Diff. of fold change (2 NAMs vs T215Y_3_TAMs): −0.05842
Mean Diff. of fold change (2 NAMs vs T215Y_3_TAMs_118): −0.06817
Mean Diff. of fold change (2 NAMs vs T215Y_3_TAMs_208): −0.01419
Mean Diff. of fold change (2 NAMs vs T215Y_3_TAMs_no118): −0.05192
Mean Diff. of fold change (2 NAMs vs T215Y_3_TAMs_no208): −0.06547
Mean Diff. of fold change (3 NAMs vs K65R): 0.1151
Mean Diff. of fold change (3 NAMs vs K65R + M184V): 0.1577
Mean Diff. of fold change (3 NAMs vs K70R_3_TAMs): −0.1326
Mean Diff. of fold change (3 NAMs vs M184V): −0.2345
Mean Diff. of fold change (3 NAMs vs T69): −0.2594
Mean Diff. of fold change (3 NAMs vs T215Y_3_TAMs): −0.009962
Mean Diff. of fold change (3 NAMs vs T215Y_3_TAMs_118): −0.01971
Mean Diff. of fold change (3 NAMs vs T215Y_3_TAMs_208): 0.03427
Mean Diff. of fold change (3 NAMs vs T215Y_3_TAMs_no118): −0.003462
Mean Diff. of fold change (3 NAMs vs T215Y_3_TAMs_no208): −0.01701
Mean Diff. of fold change (K65R + M184V vs K70R_3_TAMs): −0.2903
Mean Diff. of fold change (K65R + M184V vs T215Y_3_TAMs): −0.1676
Mean Diff. of fold change (K65R + M184V vs T215Y_3_TAMs_118): −0.1774
Mean Diff. of fold change (K65R + M184V vs T215Y_3_TAMs_208): −0.1234
Mean Diff. of fold change (K65R + M184V vs T215Y_3_TAMs_no118): −0.1611
Mean Diff. of fold change (K65R + M184V vs T215Y_3_TAMs_no208): −0.1747
Mean Diff. of fold change (K65R vs K65R + M184V): 0.04252
Mean Diff. of fold change (K65R vs K70R_3_TAMs): −0.2478
Mean Diff. of fold change (K65R vs M184V): −0.3497
Mean Diff. of fold change (K65R vs T69): −0.3746
Mean Diff. of fold change (K65R vs T215Y_3_TAMs): −0.1251
Mean Diff. of fold change (K65R vs T215Y_3_TAMs_118): −0.1349
Mean Diff. of fold change (K65R vs T215Y_3_TAMs_208): −0.08088
Mean Diff. of fold change (K65R vs T215Y_3_TAMs_no118): −0.1186
Mean Diff. of fold change (K65R vs T215Y_3_TAMs_no208): −0.1322
Mean Diff. of fold change (K70R_3_TAMs vs T215Y_3_TAMs_118): 0.1129
Mean Diff. of fold change (K70R_3_TAMs vs T215Y_3_TAMs_no118): 0.1292
Mean Diff. of fold change (M184V vs K65R + M184V): 0.3922
Mean Diff. of fold change (M184V vs K70R_3_TAMs): 0.1019
Mean Diff. of fold change (M184V vs T69): −0.02486
Mean Diff. of fold change (M184V vs T215Y_3_TAMs): 0.2246
Mean Diff. of fold change (M184V vs T215Y_3_TAMs_118): 0.2148
Mean Diff. of fold change (M184V vs T215Y_3_TAMs_208): 0.2688
Mean Diff. of fold change (M184V vs T215Y_3_TAMs_no118): 0.2311
Mean Diff. of fold change (M184V vs T215Y_3_TAMs_no208): 0.2175
Mean Diff. of fold change (T69 vs K65R + M184V): 0.4171
Mean Diff. of fold change (T69 vs K70R_3_TAMs): 0.1268
Mean Diff. of fold change (T69 vs T215Y_3_TAMs): 0.2494
Mean Diff. of fold change (T69 vs T215Y_3_TAMs_118): 0.2397
Mean Diff. of fold change (T69 vs T215Y_3_TAMs_208): 0.2937
Mean Diff. of fold change (T69 vs T215Y_3_TAMs_no118): 0.2559
Mean Diff. of fold change (T69 vs T215Y_3_TAMs_no208): 0.2424
Mean Diff. of fold change (T215Y_3_TAMs vs K70R_3_TAMs): −0.1227
Mean Diff. of fold change (T215Y_3_TAMs vs T215Y_3_TAMs_118): −0.00975
Mean Diff. of fold change (T215Y_3_TAMs vs T215Y_3_TAMs_208): 0.04423
Mean Diff. of fold change (T215Y_3_TAMs vs T215Y_3_TAMs_no118): 0.0065
Mean Diff. of fold change (T215Y_3_TAMs vs T215Y_3_TAMs_no208): −0.007051
Mean Diff. of fold change (T215Y_3_TAMs_208 vs K70R_3_TAMs): −0.1669
Mean Diff. of fold change (T215Y_3_TAMs_208 vs T215Y_3_TAMs_118): −0.05398
Mean Diff. of fold change (T215Y_3_TAMs_208 vs T215Y_3_TAMs_no118): −0.03773
Mean Diff. of fold change (T215Y_3_TAMs_208 vs T215Y_3_TAMs_no208): −0.05128
Mean Diff. of fold change (T215Y_3_TAMs_no118 vs T215Y_3_TAMs_118): −0.01625
Mean Diff. of fold change (T215Y_3_TAMs_no208 vs K70R_3_TAMs): −0.1156
Mean Diff. of fold change (T215Y_3_TAMs_no208 vs T215Y_3_TAMs_118): −0.002699
Mean Diff. of fold change (T215Y_3_TAMs_no208 vs T215Y_3_TAMs_no118): 0.01355
mean fold change (FC) compared to the WT population (all groups containing NAMs or the combination of TAMs shown in Table 1, p<0.0001, Student's T-test): significantly lower
Mean Diff. of fold change (wt vs 1 NAM): 0.1982
Mean Diff. of fold change (wt vs 2 NAMs): 0.4677
Mean Diff. of fold change (wt vs 3 NAMs): 0.4192
Mean Diff. of fold change (wt vs K65R): 0.5344
Mean Diff. of fold change (wt vs K65R + M184V): 0.5769
Mean Diff. of fold change (wt vs K70R_3_TAMs): 0.2866
Mean Diff. of fold change (wt vs M184V): 0.1847
Mean Diff. of fold change (wt vs T69): 0.1598
Mean Diff. of fold change (wt vs T215Y_3_TAMs): 0.4092
Mean Diff. of fold change (wt vs T215Y_3_TAMs_118): 0.3995
Mean Diff. of fold change (wt vs T215Y_3_TAMs_208): 0.4535
Mean Diff. of fold change (wt vs T215Y_3_TAMs_no118): 0.4157
Mean Diff. of fold change (wt vs T215Y_3_TAMs_no208): 0.4022
